Assay results reported in article PMC8931335 (Proceedings of the National Academy of Sciences of the …, 2022).

Target: T1, MOR42-3 (Mus musculus, UniProt E9PX47)
T1 sequence (E9PX47 1-334): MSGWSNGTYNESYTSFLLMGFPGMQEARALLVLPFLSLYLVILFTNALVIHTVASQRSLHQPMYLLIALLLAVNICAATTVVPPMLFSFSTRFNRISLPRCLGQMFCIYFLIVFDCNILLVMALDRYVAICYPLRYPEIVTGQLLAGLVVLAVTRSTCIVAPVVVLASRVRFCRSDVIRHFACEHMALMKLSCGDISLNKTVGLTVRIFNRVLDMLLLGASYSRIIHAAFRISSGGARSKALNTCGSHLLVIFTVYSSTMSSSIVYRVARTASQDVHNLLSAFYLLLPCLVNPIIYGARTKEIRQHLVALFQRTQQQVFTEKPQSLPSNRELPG
Assay: CRE luciferase reporter assay in Hana3A cells
Format: cell-based

SMILES: O=C(O)CCCCCCCC(=O)O [NA]
- EC50: 29.4 ± 12.8 µM
